The record followed here is patent US12441726B2, “Compounds and uses thereof” (Foghorn Therapeutics Inc., priority 2020, dated 2025).

BRM, sequence (P51531 whole entry): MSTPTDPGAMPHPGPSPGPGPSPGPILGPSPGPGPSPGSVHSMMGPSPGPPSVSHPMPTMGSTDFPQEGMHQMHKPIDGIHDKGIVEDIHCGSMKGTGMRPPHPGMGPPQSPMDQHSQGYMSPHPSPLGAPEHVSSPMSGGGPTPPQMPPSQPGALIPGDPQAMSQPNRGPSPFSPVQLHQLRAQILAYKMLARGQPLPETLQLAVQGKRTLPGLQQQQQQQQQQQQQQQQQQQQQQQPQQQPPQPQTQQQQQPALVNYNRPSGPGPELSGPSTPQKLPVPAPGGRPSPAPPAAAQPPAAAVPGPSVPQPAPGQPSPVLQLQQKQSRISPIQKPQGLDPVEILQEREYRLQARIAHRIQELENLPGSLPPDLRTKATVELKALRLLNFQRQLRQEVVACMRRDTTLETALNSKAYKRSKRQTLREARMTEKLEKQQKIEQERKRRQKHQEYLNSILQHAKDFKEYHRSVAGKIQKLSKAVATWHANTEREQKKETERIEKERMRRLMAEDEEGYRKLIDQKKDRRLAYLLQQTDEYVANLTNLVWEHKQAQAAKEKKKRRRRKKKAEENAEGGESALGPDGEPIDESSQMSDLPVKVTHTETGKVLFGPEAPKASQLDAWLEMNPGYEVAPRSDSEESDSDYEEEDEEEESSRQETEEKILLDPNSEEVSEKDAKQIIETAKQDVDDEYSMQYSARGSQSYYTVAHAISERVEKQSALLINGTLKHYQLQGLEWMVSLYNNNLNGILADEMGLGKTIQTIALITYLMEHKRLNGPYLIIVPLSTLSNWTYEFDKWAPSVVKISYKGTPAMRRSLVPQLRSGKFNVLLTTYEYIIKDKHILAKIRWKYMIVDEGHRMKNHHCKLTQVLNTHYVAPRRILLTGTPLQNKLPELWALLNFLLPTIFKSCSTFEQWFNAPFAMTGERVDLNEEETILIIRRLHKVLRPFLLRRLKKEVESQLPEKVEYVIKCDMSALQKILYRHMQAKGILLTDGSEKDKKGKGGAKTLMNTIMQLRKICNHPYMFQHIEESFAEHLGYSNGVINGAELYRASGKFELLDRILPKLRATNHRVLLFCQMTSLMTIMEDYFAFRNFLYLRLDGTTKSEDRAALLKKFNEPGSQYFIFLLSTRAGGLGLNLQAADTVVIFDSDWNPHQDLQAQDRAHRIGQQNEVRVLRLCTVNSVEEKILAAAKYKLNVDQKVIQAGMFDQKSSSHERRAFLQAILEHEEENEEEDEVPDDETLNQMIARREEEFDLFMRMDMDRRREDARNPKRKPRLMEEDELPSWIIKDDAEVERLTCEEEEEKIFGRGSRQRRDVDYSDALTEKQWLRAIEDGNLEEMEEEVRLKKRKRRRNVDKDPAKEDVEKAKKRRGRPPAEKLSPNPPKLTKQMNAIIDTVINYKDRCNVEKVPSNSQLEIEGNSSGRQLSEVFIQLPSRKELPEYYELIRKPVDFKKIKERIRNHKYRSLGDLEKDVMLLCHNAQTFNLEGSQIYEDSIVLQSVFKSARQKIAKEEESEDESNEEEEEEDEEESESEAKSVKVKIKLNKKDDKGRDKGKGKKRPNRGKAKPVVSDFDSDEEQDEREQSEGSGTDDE

In one assay the target is BRG-1 (Homo sapiens, UniProt P51532). The assay is described as follows: ATPase catalytic activity assay (ADP-Glo), BRG-1.
BRG-1, sequence (P51532 whole entry): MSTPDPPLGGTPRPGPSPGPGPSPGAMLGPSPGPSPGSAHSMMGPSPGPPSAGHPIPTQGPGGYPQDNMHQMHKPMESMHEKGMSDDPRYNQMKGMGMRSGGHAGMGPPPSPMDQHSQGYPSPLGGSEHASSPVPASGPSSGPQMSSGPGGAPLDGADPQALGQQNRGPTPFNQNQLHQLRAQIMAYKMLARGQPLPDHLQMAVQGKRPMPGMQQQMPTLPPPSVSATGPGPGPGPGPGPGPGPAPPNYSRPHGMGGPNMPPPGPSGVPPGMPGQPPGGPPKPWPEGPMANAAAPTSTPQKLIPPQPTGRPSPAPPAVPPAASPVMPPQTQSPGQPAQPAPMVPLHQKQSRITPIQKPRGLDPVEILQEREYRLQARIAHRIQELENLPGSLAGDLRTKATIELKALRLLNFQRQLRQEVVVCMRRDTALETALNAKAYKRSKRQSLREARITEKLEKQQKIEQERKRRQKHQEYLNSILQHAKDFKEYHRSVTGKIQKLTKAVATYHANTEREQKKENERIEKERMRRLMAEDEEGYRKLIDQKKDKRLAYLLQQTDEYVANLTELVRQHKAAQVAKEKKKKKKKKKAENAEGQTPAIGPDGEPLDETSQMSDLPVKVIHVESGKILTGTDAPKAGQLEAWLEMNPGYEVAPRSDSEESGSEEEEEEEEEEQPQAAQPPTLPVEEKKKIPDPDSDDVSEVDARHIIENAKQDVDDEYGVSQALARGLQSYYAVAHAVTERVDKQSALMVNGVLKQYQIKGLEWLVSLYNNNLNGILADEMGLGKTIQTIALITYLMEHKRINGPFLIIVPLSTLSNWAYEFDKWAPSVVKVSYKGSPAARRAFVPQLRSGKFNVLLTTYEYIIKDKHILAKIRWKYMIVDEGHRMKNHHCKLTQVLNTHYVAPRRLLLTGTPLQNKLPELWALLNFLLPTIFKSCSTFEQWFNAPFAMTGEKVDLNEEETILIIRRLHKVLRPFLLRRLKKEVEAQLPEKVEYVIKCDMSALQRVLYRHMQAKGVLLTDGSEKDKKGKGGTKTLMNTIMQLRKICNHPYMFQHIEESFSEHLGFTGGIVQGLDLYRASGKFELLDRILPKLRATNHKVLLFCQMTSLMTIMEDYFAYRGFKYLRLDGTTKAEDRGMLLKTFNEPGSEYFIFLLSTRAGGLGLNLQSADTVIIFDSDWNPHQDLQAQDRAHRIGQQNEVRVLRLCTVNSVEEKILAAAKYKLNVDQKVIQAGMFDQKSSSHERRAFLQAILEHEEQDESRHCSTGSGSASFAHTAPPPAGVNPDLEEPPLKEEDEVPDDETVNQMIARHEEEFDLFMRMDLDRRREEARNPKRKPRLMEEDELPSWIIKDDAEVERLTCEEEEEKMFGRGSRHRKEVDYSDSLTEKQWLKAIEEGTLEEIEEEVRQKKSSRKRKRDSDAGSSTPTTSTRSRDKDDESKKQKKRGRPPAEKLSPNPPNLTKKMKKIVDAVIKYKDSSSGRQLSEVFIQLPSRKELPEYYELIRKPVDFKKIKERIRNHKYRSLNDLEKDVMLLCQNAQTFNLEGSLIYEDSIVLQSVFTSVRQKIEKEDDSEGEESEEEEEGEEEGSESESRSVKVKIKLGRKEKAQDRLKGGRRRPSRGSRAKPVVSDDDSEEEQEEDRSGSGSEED
Settings: not given
In turn, `C[C@@]1(C#N)COCc2ccc(C(=O)NCc3cc4c(cn3)CCN(c3cccc(C(F)F)n3)C4)cc21` [Compound 304] yielded a 50% inhibitory concentration (IC50) above 1000 nM.
The same measure, in the same setting: with `COc1ncccc1-c1ccc2cnc(CNC(=O)c3ccc4c(c3)[C@](C)(C#N)COC4)cc2n1` [Compound 488] the figure was 100 to 500 nM.
Same read-out and setting: with `COc1nn(C)cc1-c1ccc2cnc(CNC(=O)c3cc(F)c4c(c3)[C@](C)(F)COC4)cc2n1` [Compound 333] the figure was 500 to 1000 nM; with `C[C@@]1(C#N)COCc2ccc(C(=O)NCc3cc4nc(-c5cccc(C(F)F)n5)ccc4cn3)cc21` [Compound 469], 100 to 500 nM; with `C[C@@]1(C#N)COCc2ccc(C(=O)NCc3cc4nc(-c5cncc(N6CCOCC6)n5)ccc4cn3)cc21` [Compound 435], 100 to 500 nM.
The same measure, in the same setting: with `C[C@@]1(C#N)COCc2ccc(C(=O)NCc3cc4nn(-c5cccc(N6CCC6)n5)cc4cn3)cc21` [Compound 166] the figure was above 1000 nM.
For the compound `C[C@@]1(F)COCc2ccc(C(=O)NCc3cc4nc(-c5ccnc(N6CCOCC6)n5)ccc4cn3)cc21` [Compound 259], the IC50 lay in the range of 100 to 500 nM.
On the same count and under the same terms, with `CN(C)c1cccc(-c2ccc3nnc(CNC(=O)c4ccc5c(c4)[C@](C)(C#N)COC5)cc3n2)n1` [Compound 223] the figure was below 100 nM; with `C[C@@]1(C#N)COCc2ccc(C(=O)NCc3cc4nc(-c5cccc(C6(C(F)F)COC6)c5)ccc4cn3)cc21` [Compound 194], 500 to 1000 nM.
Same read-out and setting: with `C[C@@]1(F)COCc2ccc(C(=O)NCc3cc4cc(-c5cccc(N6CCC6)n5)ccc4cn3)cc21` [Compound 368] the figure was 100 to 500 nM.
On the same count and under the same terms, with `CCn1ccc2c(-c3ccc4cnc(CNC(=O)c5ccc6c(c5)[C@](C)(C#N)COC6)cc4n3)cccc21` [Compound 178] the figure was 100 to 500 nM.
Turning to `COc1nn(C)cc1-c1ccc2cnc(CNC(=O)c3ccc4c(c3)[C@](C)(F)COC4)cc2c1` [Compound 251], the half-inhibitory concentration (IC50) is 100 to 500 nM.
On the same count and under the same terms, with `COc1cc(F)cc(-c2ccc3cnc(CNC(=O)c4ccc5c(c4)[C@](C)(C#N)COC5)cc3n2)c1` [Compound 101] the figure was 500 to 1000 nM; with `C[C@@]1(C#N)COCc2ccc(C(=O)NCc3cc4cc(-c5nccc(N6CCC6)n5)cnc4cn3)cc21` [Compound 372], above 1000 nM; with `C[C@@]1(C#N)COCc2ncc(C(=O)NCc3cc4nc(-c5cccc(C6CC6)n5)ccc4nn3)cc21` [Compound 189], 100 to 500 nM.
Same read-out and setting: with `C[C@@]1(C#N)COCc2ncc(C(=O)NCc3cc4nc(-c5cc(F)cc(N6CCC6)c5)ccc4cn3)cc21` [Compound 487] the figure was 100 to 500 nM; with `Cn1ccc2c(c1=O)CCN(c1ccnc(CNC(=O)c3ccc4c(c3)[C@](C)(C#N)COC4)c1)C2` [Compound 73], above 1000 nM.

Still in this assay, the particulars now being: 1 h, read-out: BRG1 Max % Inhibition, ADP-Glo, 30 nM BRG-1, 400 μM ATP.
In the case of `C[C@@]1(C#N)COCc2ccc(C(=O)NCc3cc4c(cn3)CCN(c3cccc(C(F)F)n3)C4)cc21` [Compound 304], the Emax stood at 38%.
The same measure, in the same setting: with `COc1ncccc1-c1ccc2cnc(CNC(=O)c3ccc4c(c3)[C@](C)(C#N)COC4)cc2n1` [Compound 488] the figure was 91%; with `COc1nn(C)cc1-c1ccc2cnc(CNC(=O)c3cc(F)c4c(c3)[C@](C)(F)COC4)cc2n1` [Compound 333], 79%; with `C[C@@]1(C#N)COCc2ccc(C(=O)NCc3cc4nc(-c5cccc(C(F)F)n5)ccc4cn3)cc21` [Compound 469], 85%.
On the same count and under the same terms, with `C[C@@]1(C#N)COCc2ccc(C(=O)NCc3cc4nc(-c5cncc(N6CCOCC6)n5)ccc4cn3)cc21` [Compound 435] the figure was 93%.
Still for that read-out and setting: with `C[C@@]1(C#N)COCc2ccc(C(=O)NCc3cc4nn(-c5cccc(N6CCC6)n5)cc4cn3)cc21` [Compound 166] the figure was 40%; with `C[C@@]1(F)COCc2ccc(C(=O)NCc3cc4nc(-c5ccnc(N6CCOCC6)n5)ccc4cn3)cc21` [Compound 259], 88%; with `CN(C)c1cccc(-c2ccc3nnc(CNC(=O)c4ccc5c(c4)[C@](C)(C#N)COC5)cc3n2)n1` [Compound 223], 101%.
As to `C[C@@]1(C#N)COCc2ccc(C(=O)NCc3cc4nc(-c5cccc(C6(C(F)F)COC6)c5)ccc4cn3)cc21` [Compound 194], the Emax is 60%.
The same measure, in the same setting: with `C[C@@]1(F)COCc2ccc(C(=O)NCc3cc4cc(-c5cccc(N6CCC6)n5)ccc4cn3)cc21` [Compound 368] the figure was 96%; with `CCn1ccc2c(-c3ccc4cnc(CNC(=O)c5ccc6c(c5)[C@](C)(C#N)COC6)cc4n3)cccc21` [Compound 178], 96%.
On to `COc1nn(C)cc1-c1ccc2cnc(CNC(=O)c3ccc4c(c3)[C@](C)(F)COC4)cc2c1` [Compound 251], for which the Emax was 91%.
The same measure, in the same setting: with `COc1cc(F)cc(-c2ccc3cnc(CNC(=O)c4ccc5c(c4)[C@](C)(C#N)COC5)cc3n2)c1` [Compound 101] the figure was 78%; with `C[C@@]1(C#N)COCc2ccc(C(=O)NCc3cc4cc(-c5nccc(N6CCC6)n5)cnc4cn3)cc21` [Compound 372], 47%; with `C[C@@]1(C#N)COCc2ncc(C(=O)NCc3cc4nc(-c5cccc(C6CC6)n5)ccc4nn3)cc21` [Compound 189], 93%.
Same read-out and setting: with `C[C@@]1(C#N)COCc2ncc(C(=O)NCc3cc4nc(-c5cc(F)cc(N6CCC6)c5)ccc4cn3)cc21` [Compound 487] the figure was 95%; with `Cn1ccc2c(c1=O)CCN(c1ccnc(CNC(=O)c3ccc4c(c3)[C@](C)(C#N)COC4)c1)C2` [Compound 73], 44%.

Another assay has as its target BRM (Homo sapiens, UniProt P51531). The assay is described as follows: ATPase catalytic activity assay (ADP-Glo), BRM. Conditions: 30 nM BRM, 400 μM ATP.
Consider `C[C@@]1(C#N)COCc2ccc(C(=O)NCc3cc4c(cn3)CCN(c3cccc(C(F)F)n3)C4)cc21` [Compound 304], for which the “BRM Max % Inhibition” value is listed as 86%.
Still for that read-out and setting: with `COc1ncccc1-c1ccc2cnc(CNC(=O)c3ccc4c(c3)[C@](C)(C#N)COC4)cc2n1` [Compound 488] the figure was 101%; with `COc1nn(C)cc1-c1ccc2cnc(CNC(=O)c3cc(F)c4c(c3)[C@](C)(F)COC4)cc2n1` [Compound 333], 100%; with `C[C@@]1(C#N)COCc2ccc(C(=O)NCc3cc4nc(-c5cccc(C(F)F)n5)ccc4cn3)cc21` [Compound 469], 98%.
The same measure, in the same setting: with `C[C@@]1(C#N)COCc2ccc(C(=O)NCc3cc4nc(-c5cncc(N6CCOCC6)n5)ccc4cn3)cc21` [Compound 435] the figure was 100%.
Still for that read-out and setting: with `C[C@@]1(C#N)COCc2ccc(C(=O)NCc3cc4nn(-c5cccc(N6CCC6)n5)cc4cn3)cc21` [Compound 166] the figure was 91%.
Take `C[C@@]1(F)COCc2ccc(C(=O)NCc3cc4nc(-c5ccnc(N6CCOCC6)n5)ccc4cn3)cc21` [Compound 259]: the “BRM Max % Inhibition” value came out at 99%.
As to `CN(C)c1cccc(-c2ccc3nnc(CNC(=O)c4ccc5c(c4)[C@](C)(C#N)COC5)cc3n2)n1` [Compound 223], the “BRM Max % Inhibition” value is 101%.
Same read-out and setting: with `C[C@@]1(C#N)COCc2ccc(C(=O)NCc3cc4nc(-c5cccc(C6(C(F)F)COC6)c5)ccc4cn3)cc21` [Compound 194] the figure was 93%; with `C[C@@]1(F)COCc2ccc(C(=O)NCc3cc4cc(-c5cccc(N6CCC6)n5)ccc4cn3)cc21` [Compound 368], 103%.
Same read-out and setting: with `CCn1ccc2c(-c3ccc4cnc(CNC(=O)c5ccc6c(c5)[C@](C)(C#N)COC6)cc4n3)cccc21` [Compound 178] the figure was 99%.
Still for that read-out and setting: with `COc1nn(C)cc1-c1ccc2cnc(CNC(=O)c3ccc4c(c3)[C@](C)(F)COC4)cc2c1` [Compound 251] the figure was 100%.
For the compound `COc1cc(F)cc(-c2ccc3cnc(CNC(=O)c4ccc5c(c4)[C@](C)(C#N)COC5)cc3n2)c1` [Compound 101], the “BRM Max % Inhibition” value was determined as 98%.
On the same count and under the same terms, with `C[C@@]1(C#N)COCc2ccc(C(=O)NCc3cc4cc(-c5nccc(N6CCC6)n5)cnc4cn3)cc21` [Compound 372] the figure was 93%; with `C[C@@]1(C#N)COCc2ncc(C(=O)NCc3cc4nc(-c5cccc(C6CC6)n5)ccc4nn3)cc21` [Compound 189], 99%.
As to `C[C@@]1(C#N)COCc2ncc(C(=O)NCc3cc4nc(-c5cc(F)cc(N6CCC6)c5)ccc4cn3)cc21` [Compound 487], the “BRM Max % Inhibition” value is listed as 100%.
Still for that read-out and setting: with `Cn1ccc2c(c1=O)CCN(c1ccnc(CNC(=O)c3ccc4c(c3)[C@](C)(C#N)COC4)c1)C2` [Compound 73] the figure was 84%.

The assay is the same for the next values; noted with them: BRM ATPase: IC50 (uM), 30 nM BRM, 400 μM ATP.
The compound `C[C@@]1(C#N)COCc2ccc(C(=O)NCc3cc4c(cn3)CCN(c3cccc(C(F)F)n3)C4)cc21` [Compound 304] came in with a half-maximal inhibitory concentration (IC50) of 0.1 to 0.5 µM.
Same read-out and setting: with `COc1ncccc1-c1ccc2cnc(CNC(=O)c3ccc4c(c3)[C@](C)(C#N)COC4)cc2n1` [Compound 488] the figure was below 0.1 µM; with `COc1nn(C)cc1-c1ccc2cnc(CNC(=O)c3cc(F)c4c(c3)[C@](C)(F)COC4)cc2n1` [Compound 333], below 0.1 µM; with `C[C@@]1(C#N)COCc2ccc(C(=O)NCc3cc4nc(-c5cccc(C(F)F)n5)ccc4cn3)cc21` [Compound 469], below 0.1 µM.
Still for that read-out and setting: with `C[C@@]1(C#N)COCc2ccc(C(=O)NCc3cc4nc(-c5cncc(N6CCOCC6)n5)ccc4cn3)cc21` [Compound 435] the figure was below 0.1 µM.
Compound `C[C@@]1(C#N)COCc2ccc(C(=O)NCc3cc4nn(-c5cccc(N6CCC6)n5)cc4cn3)cc21` [Compound 166] returned an IC50 of 0.1 to 0.5 µM.
In turn, `C[C@@]1(F)COCc2ccc(C(=O)NCc3cc4nc(-c5ccnc(N6CCOCC6)n5)ccc4cn3)cc21` [Compound 259] had an IC50 below 0.1 µM.
Still for that read-out and setting: with `CN(C)c1cccc(-c2ccc3nnc(CNC(=O)c4ccc5c(c4)[C@](C)(C#N)COC5)cc3n2)n1` [Compound 223] the figure was below 0.1 µM; with `C[C@@]1(C#N)COCc2ccc(C(=O)NCc3cc4nc(-c5cccc(C6(C(F)F)COC6)c5)ccc4cn3)cc21` [Compound 194], 0.1 to 0.5 µM.
The same measure, in the same setting: with `C[C@@]1(F)COCc2ccc(C(=O)NCc3cc4cc(-c5cccc(N6CCC6)n5)ccc4cn3)cc21` [Compound 368] the figure was below 0.1 µM; with `CCn1ccc2c(-c3ccc4cnc(CNC(=O)c5ccc6c(c5)[C@](C)(C#N)COC6)cc4n3)cccc21` [Compound 178], below 0.1 µM; with `COc1nn(C)cc1-c1ccc2cnc(CNC(=O)c3ccc4c(c3)[C@](C)(F)COC4)cc2c1` [Compound 251], below 0.1 µM.
With `COc1cc(F)cc(-c2ccc3cnc(CNC(=O)c4ccc5c(c4)[C@](C)(C#N)COC5)cc3n2)c1` [Compound 101], the IC50 was below 0.1 µM.
Still for that read-out and setting: with `C[C@@]1(C#N)COCc2ccc(C(=O)NCc3cc4cc(-c5nccc(N6CCC6)n5)cnc4cn3)cc21` [Compound 372] the figure was 0.1 to 0.5 µM.
On the same count and under the same terms, with `C[C@@]1(C#N)COCc2ncc(C(=O)NCc3cc4nc(-c5cccc(C6CC6)n5)ccc4nn3)cc21` [Compound 189] the figure was below 0.1 µM.
As to `C[C@@]1(C#N)COCc2ncc(C(=O)NCc3cc4nc(-c5cc(F)cc(N6CCC6)c5)ccc4cn3)cc21` [Compound 487], the half-inhibitory concentration (IC50) is below 0.1 µM.
`Cn1ccc2c(c1=O)CCN(c1ccnc(CNC(=O)c3ccc4c(c3)[C@](C)(C#N)COC4)c1)C2` [Compound 73] had an IC50 of 0.1 to 0.5 µM.
